Results taken from patent US20060084789A1, “Immunotherapeutic and immunoprphylactic reagents” (priority 2002, published 2006).

Tested on: RGP-specific TCL
Assay: TCL proliferation assay (3H-thymidine incorporation, stimulation index)
Type: cell-based, human
Conditions: for T cell responses to Lol p 5 peptides: 21 TCL tested; for Proliferative response, stimulation index: Lol p 5 series (Table 4), peptides 10 μg/ml, RGP and Lol p 5 maximal response
Method: Generation of Short-Term RGP-Specific TCL
PBMC were cultured in 24-well plates (Costar, Mass., USA) at 2.5×10^6 cells/well with RGP extract at a concentration of 25 or 50 μg/ml in RPMI 1640 medium (Gibco BRL, NY, USA) supplemented with 2 mM GlutaMAX I (Gibco BRL), 0.05 mg/ml gentamicin (David Bull Laboratories, Mulgrave, Victoria, Australia) and 5% heat-inactivated hunan AB^+ serum (Sigma, Mo., USA) for 7 days at 37° C. in a 5% CO2 humidified incubator. At day 7, cells were washed once and restimulated in 24-well plates at 5×10^5 cells/well width 25 or 50 μg/ml of RGP extract in the presence of 5×10^5 cells/well irradiated (3000 rads) autologous PBMC as a source of antigen presenting cells (APC). At day 2 following restimulation, 10 U/ml of Lymphocult T-LF (LC; Biotest, Germany) was added as a source of IL-2 and at day 4, 1 ml of culture medium was removed and replaced with fresh medium and 10 U/ml of LC. […] In all experiments T cells were rested for 6 to 7 days after the last addition of antigen and APC before testing.
T cells (5×10^4/well) were cultured in 96-well U bottom plates with either RGP extract at concentrations ranging from 25 to 200 μg/ml, purified Lol p 1 (0.12 to 2 μg/ml) or Lol p 5 (0.1 to 10 μg/ml), or Lol p 1 or Lol p 5 peptides (10 μg/ml), or medium alone (to determine background levels of proliferation), in the presence of washed autologous irradiated (3000 rads) PBMC (5×10^4/well). […] Cultures were incubated for 3 days, pulsed for the last 16 hours with ^3H-thymidine (1 μCi/well) and harvested onto glass fibre filters. ^3H-thymidine incorporation was measured by liquid scintillation spectroscopy and the mean counts per minute (cpm) for triplicate cultures was determined. Responses were considered positive if the stimulation index (SI, cpm of antigen-stimulated T cells divided by cpm of unstimulated T cells) was ≧2.5. Where several concentrations of allergen were tested (i.e., RGP, Lol p 1 and Lol p 5), values corresponding to the highest proliferation are shown.

Lol p 5 peptide 82-101: synthetic 20-mer, amino acids 82-101 of Lol p 5A (SEQ ID NO:2) (GLIPKLDTAYDVAYKAAEGA; Lolium perenne)
T cell responses to Lol p 5 peptides: nor were T cell responses detected

Lol p 5 peptide 91-110: synthetic 20-mer, amino acids 91-110 of Lol p 5A (SEQ ID NO:2) (YDVAYKAAEGATPEAKYDAF; Lolium perenne)
T cell responses to Lol p 5 peptides: nor were T cell responses detected

Lol p 5 peptide 100-119: synthetic 20-mer, amino acids 100-119 of Lol p 5A (SEQ ID NO:2) (GATPEAKYDAFVTALTEALR; Lolium perenne)
Proliferative response, stimulation index (Subject 4 TCL): 3.8
Proliferative response, stimulation index (Subject 11 TCL): 10.0
Proliferative response, stimulation index (Subject 12 TCL): 7.5
Proliferative response, stimulation index (Subject 35 TCL): 2.5

Lol p 5 peptide 109-128: synthetic 20-mer, amino acids 109-128 of Lol p 5A (SEQ ID NO:2) (AFVTALTEALRVIAGALEVH; Lolium perenne)
T cell responses to Lol p 5 peptides: nor were T cell responses detected

Lol p 5 peptide 127-146: synthetic 20-mer, amino acids 127-146 of Lol p 5A (SEQ ID NO:2) (VHAVKPATEEVPAAKIPTGE; Lolium perenne)
T cell responses to Lol p 5 peptides: nor were T cell responses detected

Lol p 5 peptide 136-155: synthetic 20-mer, amino acids 136-155 of Lol p 5A (SEQ ID NO:2) (EVPAAKIPTGELQIVDKIDA; Lolium perenne)
T cell responses to Lol p 5 peptides: nor were T cell responses detected

Lol p 5 peptide 163-182: synthetic 20-mer, amino acids 163-182 of Lol p 5A (SEQ ID NO:2) (AANAAPTNDKFTVFESAFNK; Lolium perenne)
Proliferative response, stimulation index (Subject 20 TCL): 2.5

Lol p 5 peptide 181-200: synthetic 20-mer, amino acids 181-200 of Lol p 5A (SEQ ID NO:2) (NKALNECTGGAYETYKFIPS; Lolium perenne)
Proliferative response, stimulation index (Subject 20 TCL): 3.4

PEVKYAVFEAALTKAITAMT (Lolium perenne) [Lol p 5 peptide 217-236]
Proliferative response, stimulation index (Subject 11 TCL): 5.4
Proliferative response, stimulation index (Subject 20 TCL): 4.5
Proliferative response, stimulation index (Subject 27 TCL, † affinity purified Lol p 5): 9.5
Proliferative response, stimulation index (Subject 35 TCL): 3.5
Proliferative response, stimulation index (Subject 36 TCL): 3.5
Proliferative response, stimulation index (Subject 37 TCL): 11.0

VAAAANAPPADKFKIFEAAF (Lolium perenne) [Lol p 5 peptide 46-65]
Proliferative response, stimulation index (Subject 12 TCL): 6.5
Proliferative response, stimulation index (Subject 36 TCL): 2.7
Proliferative response, stimulation index (Subject 37 TCL): 6.6
